Measurements published in paper PMC10035947, “Development of novel anilinoquinazoline-based carboxylic acids as non-classical carbonic anhydrase IX and XII inhibitors” (Journal of Enzyme Inhibition and Medicinal Chemistry, 2023).
Read-outs that look alike come from different tables or passages of the source.

Assays:
[1] = target: T1, hCA II (Homo sapiens, UniProt P00918); assay: stopped flow CO2 hydrase assay; format: biochemical; conditions: mean from 3 assays
T1 construct: made in house
Method: (§1) Carbonic anhydrase inhibition assay
The carbonic anhydrase catalyzed CO2 hydration actions for the quinazoline-based carboxylic acid derivatives (6a-c, 7a-c and 8a-c) were assayed utilizing an instrument of Applied Photophysics stopped-flow, as described previously. The enzymes are recombinant proteins prepared in our lab. Phenol red (at a concentration of 0.2 mM) has been used as indicator, working at the absorbance maximum of 557 nm, with 20 mM Hepes (pH 7.5) as buffer, and 20 mM Na2SO4 (for maintaining constant the ionic strength), following the initial rates of the CA- […]
(§2) 1.7 to 17 mM for the determination of the kinetic parameters and inhibition constants. For each inhibitor at least six traces of the initial 5-10% of the reaction have been used for determining the initial velocity. The uncatalyzed rates were determined in the same manner and subtracted from the total observed rates. Stock solutions of inhibitor (0.1 mM) were prepared in distilled-deionized water and dilutions up to 0.01 nM were done thereafter with the assay buffer. Inhibitor and enzyme solutions were preincubated together for 15 min at room temperature prior to assay, in order to allow for the formation of the E-I complex. The inhibition constants were obtained by non-linear least-squares methods using PRISM 3 and the Cheng-Prusoff equation, and represent the mean from at least three different determinations.

[2] = target: T2, hCA I (Homo sapiens, UniProt P00915); assay: stopped flow CO2 hydrase assay; format: biochemical; conditions: mean from 3 assays
T2 construct: made in house
Method: as §1
(§3) The carbonic anhydrase catalyzed CO2 hydration actions for the quinazoline-based […]
(§4) Photophysics stopped-flow, as described previously. The enzymes are recombinant proteins prepared in our lab. Phenol red (at a concentration of 0.2 mM) has been used as indicator, working at the absorbance maximum of 557 nm, with 20 mM Hepes (pH 7.5) as buffer, and 20 mM Na2SO4 (for maintaining constant the ionic strength), following the initial rates of the CA- […]
(§5) 1.7 to 17 mM for the determination of the kinetic parameters and inhibition constants. For each […]
as §2, with “initial” for “1.7 to 17 mM for the determination of the kinetic parameters and inhibition constants. For each inhibitor at least six traces of the initial 5-10% of the reaction have been used for determining the initial”

[3] = target: T3, hCA XII (Homo sapiens, UniProt O43570); assay: stopped flow CO2 hydrase assay; format: biochemical; conditions: for Selectivity ratio I/XII: KI hCA I / KI hCA XII; for Selectivity ratio II/XII: KI hCA II / KI hCA XII; for Ki: mean from 3 assays
T3 construct: made in house
Method: as §1, §3, §4, §5
as §2, with “initial” for “1.7 to 17 mM for the determination of the kinetic parameters and inhibition constants. For each inhibitor at least six traces of the initial 5-10% of the reaction have been used for determining the initial”

[4] = target: T4, hCA IX (Homo sapiens, UniProt Q16790); assay: stopped flow CO2 hydrase assay; format: biochemical; conditions: for Selectivity ratio II/IX: KI hCA II / KI hCA IX; for Ki: mean from 3 assays
T4 construct: made in house
Method: as §1, §3, §4, §5
as §2, with “initial” for “1.7 to 17 mM for the determination of the kinetic parameters and inhibition constants. For each inhibitor at least six traces of the initial 5-10% of the reaction have been used for determining the initial”

[5] = target: T4, hCA IX; conditions: cited from earlier work
[6] = target: T3, hCA XII; conditions: cited from earlier work

T2 sequence (P00915 whole entry): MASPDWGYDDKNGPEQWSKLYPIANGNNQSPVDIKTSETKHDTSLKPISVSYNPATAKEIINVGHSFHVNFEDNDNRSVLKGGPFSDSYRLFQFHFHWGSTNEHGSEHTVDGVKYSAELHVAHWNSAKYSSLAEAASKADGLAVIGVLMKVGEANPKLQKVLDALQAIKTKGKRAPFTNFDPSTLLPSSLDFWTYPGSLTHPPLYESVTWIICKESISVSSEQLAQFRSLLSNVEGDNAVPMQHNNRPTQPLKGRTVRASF
T3 sequence (O43570 25-354): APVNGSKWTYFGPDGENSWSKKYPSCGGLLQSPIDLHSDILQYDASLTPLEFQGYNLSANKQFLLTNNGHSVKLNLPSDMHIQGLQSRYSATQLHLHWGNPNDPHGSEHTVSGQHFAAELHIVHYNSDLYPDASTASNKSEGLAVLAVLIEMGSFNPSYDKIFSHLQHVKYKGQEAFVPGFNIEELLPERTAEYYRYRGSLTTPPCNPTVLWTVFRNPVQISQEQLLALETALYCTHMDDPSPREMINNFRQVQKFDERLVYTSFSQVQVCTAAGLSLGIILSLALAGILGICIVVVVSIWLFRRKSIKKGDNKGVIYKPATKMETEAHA

Row | Compound | melting point | Ki [1] | Ki [2] | Selectivity ratio I/XII [3] | Selectivity ratio II/XII [3] | Ki [3] | Selectivity ratio I/IX ([4]; KI hCA I / KI hCA IX) | Selectivity ratio II/IX [4] | Ki [4] | Ki [5] | Ki [6]
1 | O=C(O)c1ccc(N/C=C/C(=O)c2ccc(F)cc2)cc1 [III] | – | – | – | – | – | – | – | – | – | 0.92 µM | 1.1 µM
2 | Cc1c(NC(=O)Nc2cccc(C(=O)O)c2)oc2ccccc12 [I] | – | – | – | – | – | – | – | – | – | 0.79 µM | 2.3 µM
3 | Cc1cccc(-c2nc(Nc3cccc(C(=O)O)c3)c3ccccc3n2)c1 [7a, 3-((2-(m-Tolyl)quinazolin-4-yl)amino)benzoic acid] | – | 26 µM | > 100 µM | 20.8 | 5.42 | 4.8 µM | – | 0.89 | 29.3 µM | – | –

Second part, led by results:

Row | melting point | Ki [1] | Ki [2] | Selectivity ratio I/XII [3] | Selectivity ratio II/XII [3] | Ki [3] | Selectivity ratio I/IX ([4]; KI hCA I / KI hCA IX) | Selectivity ratio II/IX [4] | Ki [4] | Compound | Ki [5] | Ki [6]
4 | > 300 °C | 4.6 µM | 66.3 µM | 265.2 | 18.40 | 0.25 µM | 14.7 | 1.02 | 4.5 µM | COc1ccc(-c2nc(Nc3ccc(C(=O)O)cc3)c3ccccc3n2)cc1 [8c, 4-((2–(4-Methoxyphenyl)quinazolin-4-yl)amino)benzoic acid] | – | –
5 | 244 to 246 °C | 85.8 µM | > 100 µM | – | 178.75 | 0.48 µM | – | 2.72 | 31.6 µM | COc1ccc(-c2nc(Nc3cccc(C(=O)O)c3)c3ccccc3n2)cc1 [7c, 3-((2–(4-Methoxyphenyl)quinazolin-4-yl)amino)benzoic acid] | – | –
